Assay results: publication PMC11694611, “α‐Triazolylboronic Acids: A Novel Scaffold to Target FLT3 in AML” (Chemmedchem, 2024)
Read-outs that look alike come from different tables or passages of the source.

What was measured:
[1] = test system: MV-4-11 cells (FLT3-ITD); assay: Cell viability by MTS assay, MV-4-11 cells; type: cell-based; settings: Homo sapiens, MV4-11, read-out: MV-4-11 (IC50, mean±SEM)
Experimental: Cellular assays were carried out on MV‐4‐11 cells, driven by the FLT3‐ITD mutation.
(§1) The purified enzyme was employed in an ELISA‐based kinase assay with 300 μM ATP and a Tyr‐phosphorylatable substrate peptide, using an anti‐phosphotyrosine antibody for detection (PY20; Santa Cruz Biotech). Cell viability was determined by MTS assay using the CellTiter 96® AQueous One Solution Cell Proliferation Assay kit (Promega) according to manufacturer's instructions. Dose‐response curves were calculated by non‐linear regression (log[inhibitor] vs normalized response) using GraphPad Prism software.

[2] = test system: MOLM-14 cells (FLT3-ITD); assay: Cell viability by MTS assay, MOLM-14 cells; type: cell-based; settings: Homo sapiens, read-out: MOLM-14 (IC50, mean±SEM)
[3] = biological target: T1, recombinant His-tagged FLT3 kinase domain (aa 569–992) (Homo sapiens, UniProt P36888); assay: ELISA-based in vitro FLT3 kinase assay; type: biochemical; settings: recombinant FLT3, 300 μM ATP
T1 construct: FLT3 kinase domain (aa 569–992); His; made in house; host or cells: Sf9 cells
T1 sequence (P36888 569-992): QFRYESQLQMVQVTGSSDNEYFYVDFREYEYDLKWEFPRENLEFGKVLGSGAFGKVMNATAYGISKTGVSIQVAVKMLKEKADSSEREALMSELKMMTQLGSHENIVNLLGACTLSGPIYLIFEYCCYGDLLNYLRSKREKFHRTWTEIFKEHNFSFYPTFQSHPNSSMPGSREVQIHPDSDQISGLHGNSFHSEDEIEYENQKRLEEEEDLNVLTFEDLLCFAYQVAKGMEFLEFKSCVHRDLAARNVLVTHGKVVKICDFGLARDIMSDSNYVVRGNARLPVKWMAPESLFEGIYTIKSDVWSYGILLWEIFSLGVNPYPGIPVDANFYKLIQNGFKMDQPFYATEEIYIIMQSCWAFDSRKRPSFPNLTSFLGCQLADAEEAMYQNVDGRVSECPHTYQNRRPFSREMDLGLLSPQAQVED
Experimental: as §1, with “In vitro kinase assays and cell viability assays were performed as described (Mologni et al., 2022).[50] Briefly, recombinant His‐tagged FLT3 kinase domain (aa 569–992) was expressed in Sf9 cells and purified by nickel ion affinity chromatography. The” for “The”

[4] = test system: FLT3-wild type HL60 cells; assay: Cytotoxicity by MTS assay, control cell line HL60; type: cell-based; settings: for IC50: Homo sapiens, HL-60, read-out: HL60 (IC50, mean±SEM)
Experimental: Compounds 4 a, 4 d, 4 e, 4 g and 4 q were among the best inhibitors in enzymatic assays and confirmed their activity also in cellular tests on FLT3‐driven MV‐4‐11 and on MOLM‐14 cell lines. To confirm their cellular mechanism of action, we assayed their cytotoxicity against FLT3‐wild type HL60 cells.
as §1, with “In vitro kinase assays and cell viability assays were performed as described (Mologni et al., 2022).[50] Briefly, recombinant His‐tagged FLT3 kinase domain (aa 569–992) was expressed in Sf9 cells and purified by nickel ion affinity chromatography. The” for “The”

[5] = cited from earlier work
[6] = Table 2, FLT3-ITD cell line, MTS viability
[7] = Table 1, read-out: FLT3 Kinase Activity (IC50, mean±SEM)
[8] = Table 2, read-out: FLT3 Kinase (IC50, mean±SEM)
[9] = Table 4, control analogues lacking boronic group
[10] = Table 3, FLT3-wild type control cell line

Structure (SMILES)	IC50 [1, 6] [µM]	IC50 [3, 7] [µM]	IC50 [3, 8] [µM]	also measured
Cc1ccc(C(=O)Nc2ccc(CN3CCN(C)CC3)c(C(F)(F)F)c2)cc1C#Cc1cnc2cccnn12 [ponatinib, reference compound]	0.007 ± 0.002			IC50 [2, 6]: 0.001 ± 0.0001 µM
O=C(NCB(O)O)c1ccc(-c2nnn[nH]2)cc1 [1 e]		> 100		
O=S(=O)(NCc1cn(CB(O)O)nn1)c1cccs1 [4 l]	> 100		25 ± 5	
CCCCn1cc(-c2ccc(N)cc2)nn1 [6 e, 4‐(1‐butyl‐1H‐1,2,3‐triazol‐4‐yl)aniline]				IC50 [1, 9]: > 100 µM; IC50 [2, 9]: > 100 µM; IC50 [4, 9]: > 100 µM
OB(O)Cn1cc(-c2cccs2)nn1 [4 j]	100		76 ± 13	IC50 [2, 6]: 11 ± 2 µM
CC(NS(=O)(=O)Cc1ccccc1)B(O)O (stereo not shown) [3 c]		> 100		
Cc1cccc(-c2cn(CB(O)O)nn2)c1 [4 d]	11 ± 1	25 ± 2		IC50 [2, 6]: 3 ± 0.5 µM; IC50 [4, 10]: 32 ± 4 µM; HL60 (IC50, mean±SEM) [4, 10]: moderate inhibition of HL60
OB(O)Cn1cc(CNc2ccccc2)nn1 [4 u]	7.6 ± 3.9		> 100	FLT3 Kinase (IC50, mean±SEM) ([3]; Table 2): lose enzymatic activity; IC50 [2, 6]: 8.7 ± 1.4 µM
CC(=O)NC(Cn1cc(-c2ccccc2)nn1)B(O)O (stereo not shown) [2 d]		> 100		
O=C(Cc1ccc(O)c(O)c1)NCB(O)O [1 g]		> 100		
O=C(NCc1cn(CB(O)O)nn1)C(F)(F)F [4 v]	> 100		> 100	FLT3 Kinase (IC50, mean±SEM) ([3]; Table 2): lose enzymatic activity
O=C(CSc1ccncc1)NCB(O)O [1 f]		> 100		
O=C(Cc1cccs1)NC(B(O)O)c1ccccc1 (stereo not shown) [1 d]		> 100		
NC(=O)c1cccc(-c2cn(CB(O)O)nn2)c1 [4 b]	> 100	> 100		
O=S(=O)(CC(F)(F)F)NCc1cn(CB(O)O)nn1 [4 k]	> 100		5.8 ± 0.9	
CC(C)C(NS(=O)(=O)Cc1ccccc1)B(O)O (stereo not shown) [3 b]		> 100		
OB(O)Cn1cc(COc2ccccc2)nn1 [4 r]	1.1 ± 0.1		> 100	FLT3 Kinase (IC50, mean±SEM) ([3]; Table 2): do not inhibit FLT3; IC50 [2, 6]: 0.16 ± 0.01 µM
NS(=O)(=O)c1cccc(-c2cn(CB(O)O)nn2)c1 [4 f]	> 100	> 100		
OB(O)Cn1cc(-c2cccc(Cl)c2)nn1 [4 g]	2.7 ± 0.9	18 ± 5		IC50 [2, 6]: 0.68 ± 0.08 µM; IC50 [4, 10]: 15 ± 1 µM; HL60 (IC50, mean±SEM) [4, 10]: moderate inhibition of HL60
O=S(=O)(Cc1ccccc1)NCB(O)O [3 a]		> 100		
COC(=O)c1ccc(CS(=O)(=O)NCc2cn(CB(O)O)nn2)cc1 [4 m]	> 100		> 100	

Structure (SMILES)	IC50 [1, 6] [µM]	IC50 [3, 7] [µM]	IC50 [3, 8] [µM]	also measured
CS(=O)(=O)NCc1cn(CB(O)O)nn1 [4 p]	> 100		42 ± 5	
COC(=O)c1cccc(CS(=O)(=O)NCc2cn(CB(O)O)nn2)c1 [4 o]	> 100		65 ± 11	
[Cl-].[Na+] [NaCl]				LD50 [5]: 3000 mg/kg
O=C(O)c1cccc(CS(=O)(=O)NCc2cn(CB(O)O)nn2)c1 [4 n]	> 100		> 100	
O=C(Nc1ccccc1)NC(Cc1cccc(C(=O)O)c1)B(O)O (stereo not shown) [1 a]		> 100		
Nc1ccc(-c2cn(CC(=O)O)nn2)cc1 [5 e, 2‐(4‐(4‐aminophenyl)‐1H‐1,2,3‐triazol‐1‐yl)acetic acid]				IC50 [1, 9]: > 100 µM; IC50 [2, 9]: > 100 µM; IC50 [4, 9]: > 100 µM
O=C(NCc1cn(CB(O)O)nn1)c1ccccc1 [4 t]	> 100		3.2 ± 0.4	
OB(O)Cn1cc(-c2cnccn2)nn1 [4 h]	> 100		> 100	
Cc1ccc(S(=O)(=O)Nc2cccc(OCc3cn(CB(O)O)nn3)c2)cc1 [4 q]	10 ± 1		18 ± 3	IC50 [2, 6]: 4.3 ± 0.5 µM; IC50 [4, 10]: > 100 µM
CC(=O)NC(Cn1cc(C(C)(C)O)nn1)B(O)O (stereo not shown) [2 e]		> 100		
O=C(OCc1cn(CB(O)O)nn1)c1ccccc1 [4 w]	1.4 ± 0.3		> 100	FLT3 Kinase (IC50, mean±SEM) ([3]; Table 2): do not inhibit FLT3; IC50 [2, 6]: 0.35 ± 0.01 µM
Nc1cccc(-c2cn(CC(NC(=O)Cc3ccccc3)B(O)O)nn2)c1 (stereo not shown) [2 a]		> 100		
OB(O)Cn1cc(-c2cccnc2)nn1 [4 i]	> 100		> 100	
NC(=O)c1cn(CC(NC(=O)Cc2cccs2)B(O)O)nn1 (stereo not shown) [2 b]		> 100		
Nc1cccc(-c2cn(CB(O)O)nn2)c1 [4 e]	14 ± 3	6.7 ± 1.7		IC50 [2, 6]: 11 ± 1 µM; IC50 [4, 10]: > 100 µM
Cc1ccc(S(=O)(=O)Nc2cccc(-c3cn(CB(O)O)nn3)c2)cc1 [4 a]	14 ± 0.2	18 ± 1		IC50 [2, 6]: 5.8 ± 0.7 µM; IC50 [4, 10]: > 100 µM
O=C(O)c1cccc(-c2cn(CB(O)O)nn2)c1 [4 c]	> 100	> 100		
Nc1nnc(SCC(=O)NC(Cn2cc(C(=O)O)nn2)B(O)O)s1 (stereo not shown) [2 c]		> 100		
O=C(Cc1ccc(-c2nn[nH]n2)cc1)NCB(O)O [1 b]		> 100		
Cc1onc(-c2ccccc2Cl)c1C(=O)NCB(O)O [1 c]		> 100		
